Test results from patent US4977189A, “Substituted guanidinedicarbonyl derivatives” (American Cyanamid Company, priority 1988, dated 1990).

Assays:
[1] = tested on: Brain-Specific Receptors (3H-benzodiazepine binding); test: Inhibition of the Binding of 3H-Benzodiazepine to Brain-Specific Receptors of Rats; parameters: species or system rat (male albino, Wistar strain; whole cortex); details: 3H-diazepam (1.5 nM) or 3H-flunitrazepam (1.0 nM); rat cortex P2-fraction; 30 minutes in ice; test concentration not given
From the text: A test utilized for the determination of anxiolytic activity is the measurement of the ability of test compounds to inhibit the binding of tritiated benzodiazepines to brain-specific recptors of warm-blooded animals. A modification of the method described by R. F. Squires, et al., Nature, 266, No. 21, pg 732 (April, 1977) and H. Mohler, et al., Science, 198, pg 849 (1977) was employed.
Male albino rats (Wistar strain, weighing 150-200 g each) were used. The test compounds were solubilized in either dimethylformamide, acetic acid, ethanol or hydrochloric acid.
Whole cortex of rats was homogenized gently in 20 volumes of ice-cold 0.32M sucrose, centrifuged twice at 1000 g for 10 minutes and then recentrifuged at 30,000 g for 20 minutes to produce a crude P2 -synaptosomal fraction. The P2 -fraction was either: (1) resuspended in twice the original volume in hypotonic 50 mM Tris.HCl (pH 7.4), or (2) resuspended in one-half the original volume in hypotonic 10 mM Tris.HCl (pH 7.4) and frozen (-20° C.) until time of use. Frozen P2 preparations were thawed and resuspended in four times the original homogenizing volume at time of assay.
The binding assay consisted of 300 μl of the P2 -fraction suspension (0.2-0.4 mg protein), 100 μl of test drug and 100 μl of ^3 H-diazepam (1.5 nM, final concentration) or ^3 H-flunitrazepam (1.0 nM, final concentration) which was added to 1.5 ml of 50 mM Tris.HCl (pH 7.4). Non-specific binding controls and total binding controls d 100 μl of diazepam (3 μM final concentration) and 100 μl of deionized water, respectively, in place of the test compound. Incubation for 30 minutes proceeded in ice and was terminated by filtration, under vacuum, through glass fiber filters. The filters were washed twice with 5 ml of ice-cold 50 mM Tris.HCl (pH 7.4) and placed in scintillation vials. After drying at 50°-60° C. for 30 minutes, 10 ml of diluent was added and the radioactivity determined in a scintillation counter.
Inhibition of binding was calculated by the difference between total binding and binding in the presence of test compound, divided by the total binding, X 100.

Royal Hart mice = test: Hypoxic Survival Test; assay type: in vivo, mouse (Royal Hart); details: 10% oxygen; for responders at 50 mg/kg / responders at 100 mg/kg / responders at 10 mg/kg / responders at 200 mg/kg / responders at 25 mg/kg: Mus musculus, ip, 5 min, 30 minutes prior, survival after 5 minutes, read-out: % Survivors; for responders at 50 mg/kg: 50 mg/kg intraperitoneally; for responders at 100 mg/kg: 100 mg/kg intraperitoneally; for responders at 10 mg/kg: 10 mg/kg intraperitoneally; for responders at 200 mg/kg: 200 mg/kg intraperitoneally; for responders at 25 mg/kg: 25 mg/kg intraperitoneally
Description: A useful in vivo test that measures how effectively central nervous system-acting drugs enhance survival in a hypoxic environment, presumably by improving the ratio of energy supply to demand is known as the Hypoxic Survival Test. […] Drugs are tested by intraperitoneally injecting groups of mice 30 minutes prior to placing them in a hypoxic mixture and measuring survival. The rationale of this test is that drugs which enhance survival under hypoxic conditions without concomitant, depression or sedative side effects, may do so by enhancing energy metabolism, or by preserving normal brain function under conditions of reduced energy metabolism. Given the dependence of the brain on a constant supply of energy, drugs which have this property may have many far-reaching therapeutic indications, including recovery from stroke and closed head injury, as well as reducing the deleterious effects of the aging central nervous system.
Groups of 20 Royal Hart mice (6 weeks of age) are injected intraperitoneally with test compound (1-200 mg/kg) 30 minutes prior to placing them in a hypoxic mixture (10% oxygen in 90% […]) and measuring survival after 5 minutes.
A separate group of 20 mice is injected intraperitoneally with saline solution (0.01 cc/g of body weight) and processed as described above.
Still another group of 20 mice is injected intraperitoneally with 0.125 mg/kg of physostigmine and processed as described above.

% Inhibition [1] [%] | SMILES | responders at 100 mg/kg (Royal Hart mice) [%] | further results
14 | CN(C)C(=O)c1ccc(NC(=NC(=O)c2ccccc2)NC(=O)c2ccccc2)cc1 [4-[[(Benzoylamino)(benzoylimino)methyl]amino]-N,N-dimethylbenzamide] | – | –
29 | Cc1cccc(C(=O)NC(=Nc2ccc(C(=O)N(C)C)cc2)NC(=O)c2cccc(C)c2)c1 [4-[[Bis[(3-methylbenzoyl)amino]methylene]amino]-N,N-dimethylbenzamide] | – | –
– | Cc1cccc(C(=O)N=C(NC(=O)c2cccc(C)c2)Nc2ccccc2C(N)=O)c1 [N,N'-[[2-(Aminocarbonyl)phenyl]carbonimidoyl]bis[3-methylbenzamide]] | 48 | responders at 50 mg/kg (Royal Hart mice): 40%
– | CCN(CC)CCNC(=NC(=O)c1ccc(C(F)(F)F)cc1)NC(=O)c1ccc(C(F)(F)F)cc1 [N,N'-[[2-(Diethylaminoethyl]carbonimidoyl]bis[4-(trifluoromethyl)benzamide] | 65 | responders at 10 mg/kg (Royal Hart mice): 45%; responders at 50 mg/kg (Royal Hart mice): 70%; responders at 200 mg/kg (Royal Hart mice): 85%
17 | Cc1cccc(C(=O)N=C(NC(=O)c2cccc(C)c2)Nc2cccc(C(N)=O)c2)c1 [N,N'-[[3-(Aminocarbonyl)phenyl]carbonimidoyl]bis[3-methylbenzamide]] | – | –
17 | COc1ccc(C(=O)N=C(NC(=O)c2ccc(OC)cc2)Nc2ccc(C(N)=O)cc2)cc1 [N,N'-[[4-(Aminocarbonyl)phenyl]carbonimidoyl]bis[4-methoxybenzamide]] | – | –
16 | CCCCCCCCNC(=O)c1ccc(NC(=NC(=O)c2cccc(C)c2)NC(=O)c2cccc(C)c2)cc1 [N,N'-[[4-(Octylamino)carbonyl]phenyl]carbonimidoyl]bis[3-methylbenzamide]] | – | –
– | NS(=O)(=O)c1ccc(CNC(=NC(=O)c2ccccc2)NC(=O)c2ccccc2)cc1 [N,N'-[[[4-(Aminosulfonyl)phenyl]methyl]carbonimidoyl]bisbenzamide] | 35 | responders at 10 mg/kg (Royal Hart mice): 50%
17 | CNC(=O)c1ccc(NC(=NC(=O)c2cccc(C)c2)NC(=O)c2cccc(C)c2)cc1 [N,N'[[4-[(Methylamino)carbonyl]phenyl]carbonimidoyl]bis[3-methylbenzamide]] | – | –
10 | COc1ccc(C(=O)NC(=NC(=O)c2ccc(C)cc2)Nc2ccccc2C(N)=O)cc1 [N-[[[2-(Aminocarbonyl)phenyl]amino][(4-methoxybenzoyl)amino]methylene]-4-methylbenzamide] | – | –
15 | Cc1cccc(C(=O)N=C(NC(=O)c2ccccc2)Nc2cccc(C(N)=O)c2)c1 [N-[[[3-(Aminocarbonyl)phenyl]amino](benzoylamino)methylene]-3-methylbenzamide] | – | –
12 | COc1ccc(C(=O)NC(=NC(=O)c2ccc(C)cc2)Nc2cccc(C(N)=O)c2)cc1 [N-[[[3-(Aminocarbonyl)phenyl]amino][(4-methoxybenzoyl)amino]methylene]-4-methylbenzamide] | – | –
– | NC(=O)c1ccc(NC(=NC(=O)c2cccs2)NC(=O)c2ccccc2)cc1 [N-[[[4-(Aminocarbonyl)phenyl]amino](benzoylamino)methylene]-2-thiophenecarboxamide] | – | responders at 10 mg/kg (Royal Hart mice): 50%; responders at 50 mg/kg (Royal Hart mice): 50%
– | COc1cc(C(=O)N=C(NC(=O)c2ccccc2)Nc2ccc(C(N)=O)cc2)cc(OC)c1OC [N-[[[4-(Aminocarbonyl)phenyl]amino](benzoylamino)methylene]-3,4,5-trimethoxybenzamide] | – | responders at 10 mg/kg (Royal Hart mice): 50%; responders at 25 mg/kg (Royal Hart mice): 50%
– | NC(=O)c1ccc(NC(=NC(=O)c2cccc(Br)c2)NC(=O)c2ccccc2)cc1 [N-[[[4-(Aminocarbonyl)phenyl]amino](benzoylamino)methylene]-3-bromobenzamide] | – | responders at 10 mg/kg (Royal Hart mice): 50%
33 | Cc1cccc(C(=O)N=C(NC(=O)c2ccccc2)Nc2ccc(C(N)=O)cc2)c1 [N-[[[4-(Aminocarbonyl)phenyl]amino](benzoylamino)methylene]-3-methylbenzamide] | – | –
– | NC(=O)c1ccc(NC(=NC(=O)c2ccc(Br)cc2)NC(=O)c2ccccc2)cc1 [N-[[[4-(Aminocarbonyl)phenyl]amino](benzoylamino)methylene]-4-bromobenzamide] | 43 | responders at 10 mg/kg (Royal Hart mice): 42%; responders at 25 mg/kg (Royal Hart mice): 60%
22 | NC(=O)c1ccc(NC(=NC(=O)Cc2ccccc2)NC(=O)c2ccccc2)cc1 [N-[[[4-(Aminocarbonyl)phenyl]amino](benzoylamino)methylene]benzeneacetamide] | – | –
– | NC(=O)c1ccc(NC(=NC(=O)c2ccccc2)NC(=O)C23CC4CC(CC(C4)C2)C3)cc1 [N-[[[4-(Aminocarbonyl)phenyl]amino](benzoylamino)methylene]tricyclo[3.3.1.1^3.7]decane-1-carboxamide] | – | responders at 50 mg/kg (Royal Hart mice): 42%
– | COc1ccc(C(=O)N=C(NC(=O)c2ccc(C)cc2)Nc2ccc(C(N)=O)cc2)cc1 [N-[[[4-(Aminocarbonyl)phenyl]amino][4-methylbenzoyl)amino]methylene]-4-methoxybenzamide] | 43 | –
– | NC(=O)c1ccc(NC(=NC(=O)c2ccccc2)NC(=O)C=Cc2ccccc2)cc1 [N-[[[4-(Aminocarbonyl)phenyl]amino][(1-oxo-3-phenyl-2-propenyl)amino]methylene]benzamide] | 40 | –
– | NC(=O)c1ccc(NC(=NC(=O)c2ccc(F)cc2)NC(=O)c2ccc(Br)cc2)cc1 [N-[[[4-(Aminocarbonyl)phenyl]amino][(4-bromobenzoyl)amino]methylene]-4-fluorobenzamide] | 44 | responders at 25 mg/kg (Royal Hart mice): 40%
57 | Cc1ccc(C(=O)N=C(NC(=O)c2ccc(Br)cc2)Nc2ccc(C(N)=O)cc2)cc1 [N-[[[4-(Aminocarbonyl)phenyl]amino][(4-bromobenzoyl)amino]methylene]-4-methylbenzamide] | – | –
– | COc1ccc(C(=O)N=C(NC(=O)c2ccc(F)cc2)Nc2ccc(C(N)=O)cc2)cc1 [N-[[[4-(Aminocarbonyl)phenyl]amino][(4-fluorobenzoyl)amino]methylene]-4-methoxybenzamide] | 42 | responders at 25 mg/kg (Royal Hart mice): 45%; responders at 50 mg/kg (Royal Hart mice): 60%
– | COc1ccc(C(=O)NC(=NC(=O)c2cccc(C)c2)Nc2ccc(C(N)=O)cc2)cc1 [N-[[[4-(Aminocarbonyl)phenyl]amino][(4-methoxybenzoyl)amino]methylene]-3-methylbenzamide] | 50 | responders at 10 mg/kg (Royal Hart mice): 50%; responders at 50 mg/kg (Royal Hart mice): 45%; responders at 200 mg/kg (Royal Hart mice): 45%
– | COc1ccc(C(=O)NC(=NC(=O)c2ccc(C(F)(F)F)cc2)Nc2ccc(C(N)=O)cc2)cc1 [N-[[[4-(Aminocarbonyl)phenyl]amino][(4-methoxybenzoyl)amino]methylene]-4-(trifluoromethyl)benzamide] | 47 | responders at 50 mg/kg (Royal Hart mice): 55%
– | NC(=O)c1ccc(NC(=NC(=O)c2ccc(C(F)(F)F)cc2)NC(=O)c2ccccc2)cc1 [N-[[[4-(Aminocarbonyl)phenyl]amino][benzoylamino]methylene]-4-(trifluoromethyl)benzamide] | – | responders at 50 mg/kg (Royal Hart mice): 45%
– | CNC(=O)Oc1ccc2c(c1)[C@]1(C)CCN(C)[C@@H]1N2C [physostigmine, reference compound] | – | physostigmine treated mice that survive (Royal Hart mice; 0.125 mg/kg intraperitoneally, after 5 minutes, saline control mice 5-20%): 60-80%
